Results reported in patent US7074834B2, “Long acting, reversible veterinary sedative and analgesic and method of use” (University of Kentucky Foundation, priority 2000, dated 2006).

How the values were obtained:
Format in all cases: in vivo
[1] = test system: horse; experiment: Sedation / head ptosis response in the standing horse after intravenous administration
Description: As used herein by “rapid onset” is meant to include the time interval from administration of the active, e.g., guanabenz acetate, until the drug begins to take effect and produce the intended response, e.g., sedation and/or tranquilization and /or analgesia. For the compositions disclosed herein, this time interval typically ranges from between about 1 minute to about 30 minutes. As one of skill in the art can appreciate, the length of time for onset of action can vary, e.g., depending upon the route of administration, the species, age, size, and health status of the animal and the like. In the adult horse, for example, the clinical signs of sedation will begin to appear within 1–3 minutes following a single intravenous administration of about 100 mg of guanabenz or guanabenz acetate.
The term “analgesia” or “analgesic” is meant to include any conscious relief from a painful stimulus in an animal. In general, an analgesic is an agent that alleviates pain or reduces the sensation of pain without causing loss of consciousness. The term “long lasting” is generally meant to include the time interval from the onset of effect of the active until the effect has waned to a subclinical level. Thus, the establishment of this time interval is subjective but is readily ascertainable in the hands of the skilled artisan. Of course the duration of action of the active can vary, e.g., depending upon the route of administration, the species, age, size, and health status of the animal and the like. In the adult horse, for example, the clinical signs of sedation will begin to appear within 1–3 minutes following a single intravenous administration of about 100 mg of guanabenz or guanabenz acetate and the duration of action is up to about 4 hours.
In one embodiment, the present invention provides the surprising discovery that guanabenz acetate, after a single intravenous dose of about 0.2 milligrams per kilogram per horse, produces a rapid onset of sedation and/or, tranquilization and/or analgesia in the standing horse.
The solid circles (● - - - ●) show head ptosis measured as cm above ground level after rapid intravenous administration of guanabenz.

[2] = test system: horse; experiment: Heat lamp equine analgesia model; settings: horse 1000 lbs, 0.2 mg/kg (100 mg) intravenously
Description: A horse (1000 lbs) in was administered guanabenz at a dose of 0.2 mg/kg (100 mg) intravenously at time point 0 (see FIG. 2). […] Note also that this response is maintained at full intensity for approximately 30 minutes and declines thereafter, and returns to control values by 6 hrs post administration. The solid circles (● - - - ●) show the increasing control latency in our heat lamp equine analgesia model after administration of guanabenz at indicated zero time.

[3] = Blood glucose, urine glucose, urine production and urine specific gravity after intravenous administration; settings: horse about 1000 lbs, 0.2 mg/kg (100 mg) intravenously
Description: Referring now to FIG. 3, a horse (about 1000 lbs) was administered guanabenz at a dose of 0.2 mg/kg (100 mg) intravenously at time point 0. […] The solid circles (● - - - ●) show blood glucose levels after rapid intravenous administration of guanabenz. Note also the increase in urine glucose levels after the administration of guanabenz. The open circles (◯-◯) show the corresponding urinary concentrations of glucose after this administration.
In FIG. 3b, note how the dose of 100 mg of guanabenz yields an increase in urine production as indicated by the increase in volume of urine collected. The solid circles (● - - - ●) show volume of urinary output after rapid intravenous administration of guanabenz. Note also in FIG. 3c, the decrease in specific gravity of the urine after the administration of the guanabenz. The solid circles (● - - - ●) show the corresponding urinary specific gravity values after this administration.

[4] = standing horse, single intravenous dose of about 0.2 mg/kg

N=C(N)N/N=C/c1c(Cl)cccc1Cl [guanabenz, 1-[2,6-dichlorobenzylidine-amino]-3-guanidine]
head ptosis response (cm above ground level), FIG. 1 ([1]; horse about 1000 lbs, 0.2 mg/kg (100 mg) intravenously): very rapid onset | onset of analgesia response (desensitization to the heat lamp), FIG. 2 [2]: very rapid onset | time for which the analgesia response is maintained at full intensity [2]: approximately 30 minutes | time at which the analgesia response returns to control values ([2]; post administration): ≤ 6 h | blood glucose levels, FIG. 3a [3]: transient increase | specific gravity of the urine, FIG. 3c [3]: decrease | urine glucose levels, FIG. 3a [3]: increase | urine production (volume of urine collected), FIG. 3b [3]: increase

COC(=O)[C@@H]1[C@H]2C[C@H]3c4[nH]c5ccccc5c4CCN3C[C@@H]2CC[C@@H]1O [yohimbine]
reversal of guanabenz tranquilization and sedation (head ptosis), FIG. 1 ([1]; horse given guanabenz 100 mg i.v., yohimbine 60 mg intravenously): rapid reversal | reversal of guanabenz acetate sedation and head ptosis response ([1]; horse, guanabenz acetate about 0.2 mg/kg i.v., antagonist given intravenously): rapidly reversible

N=C(N)N/N=C/c1c(Cl)cccc1Cl [guanabenz acetate]
duration for which sedation and head ptosis are maintained [1, 4]: up to four hours | onset of profound sedation and head ptosis [1, 4]: within one minute
